Results: ChEMBL document CHEMBL1140238, “Synthesis of selective SRPK-1 inhibitors: novel tricyclic quinoxaline derivatives” (Bioorg Med Chem Lett, 2005)

Assays:
[1] = target: Mitogen-activated protein kinase 8 (Homo sapiens) (UniProt P45983); test: In vitro percent inhibition of c-Jun N-terminal kinase 1-alpha 1 at 10 uM concentration of compound dissolved in 100% DMSO using 5''-[gamma-33P]-triphosphate
[2] = In vitro percent inhibition of Cyclin-dependent kinase 2-cyclin A at 10 uM concentration of compound dissolved in 100% DMSO using 5''-[gamma-33P]-triphosphate
[3] = target: Ribosomal protein S6 kinase (P70S6K) (Homo sapiens) (UniProt Q9UBS0+P23443); test: In vitro percent inhibition of Ribosomal protein S6 kinase at 10 uM concentration of compound dissolved in 100% DMSO using 5''-[gamma-33P]-triphosphate; format: protein-complex assay
[4] = target: Glycogen synthase kinase-3 beta (Homo sapiens) (UniProt P49841); test: In vitro percent inhibition of Glycogen synthase kinase 3 beta at 10 uM concentration of compound dissolved in 100% DMSO using 5''-[gamma-33P]-triphosphate
[5] = target: RAF proto-oncogene serine/threonine-protein kinase (Homo sapiens) (UniProt P04049); test: In vitro percent inhibition of RAF proto-oncogene serine/threonine-protein kinase at 10 uM concentration of compound dissolved in 100% DMSO using 5''-[gamma-33P]-triphosphate
[6] = target: Platelet-derived growth factor receptor beta (Homo sapiens) (UniProt P09619); test: In vitro percent inhibition of Platelet-derived growth factor receptor, beta polypeptide at 10 uM concentration of compound dissolved in 100% DMSO using 5''-[gamma-33P]-triphosphate
[7] = target: Mast/stem cell growth factor receptor Kit (Homo sapiens) (UniProt P10721); test: In vitro percent inhibition of v-kit Hardy-Zuckerman 4 feline sarcoma viral oncogene homolog at 10 uM concentration of compound dissolved in 100% DMSO using 5''-[gamma-33P]-triphosphate
[8] = target: Hepatocyte growth factor receptor (Homo sapiens) (UniProt P08581); test: In vitro percent inhibition of Met proto-oncogene tyrosine kinase at 10 uM concentration of compound dissolved in 100% DMSO using 5''-[gamma-33P]-triphosphate
[9] = target: Mitogen-activated protein kinase 3 (Homo sapiens) (UniProt P27361); test: In vitro percent inhibition of Mitogen-activated protein kinase 3 at 10 uM concentration of compound dissolved in 100% DMSO using 5''-[gamma-33P]-triphosphate
[10] = target: RAC-alpha serine/threonine-protein kinase (Homo sapiens) (UniProt P31749); test: In vitro percent inhibition of Protein kinase B, alpha at 10 uM concentration of compound dissolved in 100% DMSO using 5''-[gamma-33P]-triphosphate
[11] = target: Tyrosine-protein kinase Lck (Homo sapiens) (UniProt P06239); test: In vitro percent inhibition of p56 Lck tyrosine kinase at 10 uM concentration of compound dissolved in 100% DMSO using 5''-[gamma-33P]-triphosphate
[12] = target: Rho-associated protein kinase 2 (Homo sapiens) (UniProt O75116); test: In vitro percent inhibition of Protein kinase ROCK2 at 10 uM concentration of compound dissolved in 100% DMSO using 5''-[gamma-33P]-triphosphate
[13] = target: Casein kinase I isoform alpha (Homo sapiens) (UniProt P48729); test: In vitro percent inhibition of Casein kinase 1 alpha at 10 uM concentration of compound dissolved in 100% DMSO using 5''-[gamma-33P]-triphosphate
[14] = target: T1, Inhibitor of nuclear factor kappa-B kinase subunit beta (Homo sapiens) (UniProt O14920); test: In vitro percent inhibition of I-kappa-B-kinase beta at 10 uM concentration of compound dissolved in 100% DMSO using 5''-[gamma-33P]-triphosphate
T1 sequence (whole entry): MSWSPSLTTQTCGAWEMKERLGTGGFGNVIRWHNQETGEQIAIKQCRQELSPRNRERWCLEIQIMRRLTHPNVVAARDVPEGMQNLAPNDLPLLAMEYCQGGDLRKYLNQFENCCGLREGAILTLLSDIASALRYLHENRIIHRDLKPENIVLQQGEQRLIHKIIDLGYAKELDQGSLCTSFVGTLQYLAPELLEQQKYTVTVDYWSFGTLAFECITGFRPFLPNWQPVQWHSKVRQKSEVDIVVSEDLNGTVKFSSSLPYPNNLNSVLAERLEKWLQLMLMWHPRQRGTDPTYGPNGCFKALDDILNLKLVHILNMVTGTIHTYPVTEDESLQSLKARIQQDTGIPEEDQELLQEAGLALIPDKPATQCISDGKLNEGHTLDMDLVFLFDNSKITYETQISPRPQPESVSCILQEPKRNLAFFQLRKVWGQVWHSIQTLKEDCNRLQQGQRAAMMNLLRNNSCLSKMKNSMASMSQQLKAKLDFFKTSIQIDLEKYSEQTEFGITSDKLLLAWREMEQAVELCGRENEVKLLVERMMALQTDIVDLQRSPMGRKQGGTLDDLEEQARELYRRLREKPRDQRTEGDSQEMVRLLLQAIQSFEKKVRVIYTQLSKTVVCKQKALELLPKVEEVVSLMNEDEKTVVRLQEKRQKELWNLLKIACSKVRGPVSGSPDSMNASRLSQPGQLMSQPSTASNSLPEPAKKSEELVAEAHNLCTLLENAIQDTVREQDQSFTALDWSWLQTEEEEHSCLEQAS

[15] = In vitro percent inhibition of Ribosomal S6 kinase 1 at 10 uM concentration of compound dissolved in 100% DMSO using 5''-[gamma-33P]-triphosphate
[16] = target: T2, Tyrosine-protein kinase transforming protein Abl (Abelson murine leukemia virus) (UniProt P00521); test: In vitro percent inhibition of v-Abl tyrosine kinase at 10 uM concentration of compound dissolved in 100% DMSO using 5''-[gamma-33P]-triphosphate
T2 sequence (whole entry): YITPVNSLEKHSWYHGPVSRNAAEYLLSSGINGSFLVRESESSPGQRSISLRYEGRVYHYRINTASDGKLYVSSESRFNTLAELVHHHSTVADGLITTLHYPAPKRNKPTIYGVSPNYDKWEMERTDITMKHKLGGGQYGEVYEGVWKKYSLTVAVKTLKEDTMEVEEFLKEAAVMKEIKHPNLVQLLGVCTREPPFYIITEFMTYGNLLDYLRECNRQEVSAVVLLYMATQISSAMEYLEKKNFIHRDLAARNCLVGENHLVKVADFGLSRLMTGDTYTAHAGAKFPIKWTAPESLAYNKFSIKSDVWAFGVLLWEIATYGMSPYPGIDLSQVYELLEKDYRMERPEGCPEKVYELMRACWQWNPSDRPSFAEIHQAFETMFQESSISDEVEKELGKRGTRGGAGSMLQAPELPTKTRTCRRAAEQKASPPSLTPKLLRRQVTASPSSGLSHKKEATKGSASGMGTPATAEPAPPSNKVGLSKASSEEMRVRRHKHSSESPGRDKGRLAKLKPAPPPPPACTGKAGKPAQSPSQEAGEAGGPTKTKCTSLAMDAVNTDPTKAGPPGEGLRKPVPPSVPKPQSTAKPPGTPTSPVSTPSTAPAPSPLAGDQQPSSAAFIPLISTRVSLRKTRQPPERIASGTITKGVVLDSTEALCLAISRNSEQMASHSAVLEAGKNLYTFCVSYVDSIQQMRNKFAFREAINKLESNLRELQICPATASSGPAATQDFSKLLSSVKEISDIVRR

[17] = Partition coefficient (logP); format: physicochemical; conditions: octanol/water
[18] = target: Epidermal growth factor receptor (Homo sapiens) (UniProt P00533); conditions: 10 uM
SRPK1 (Homo sapiens) = test: In vitro inhibition of SR protein kinase 1 by compound dissolved in 100% DMSO using 5''-[gamma-33P]-triphosphate; n.a. - not active
[19] = Inhibitory activity against Platelet-derived growth factor receptor kinase
[20] = target: Insulin receptor (Homo sapiens) (UniProt P06213); test: In vitro percent inhibition of Insulin receptor at 10 uM concentration of compound dissolved in 100% DMSO using 5''-[gamma-33P]-triphosphate
[21] = target: Proto-oncogene tyrosine-protein kinase Src (Homo sapiens) (UniProt P12931); test: In vitro percent inhibition of c-Src tyrosine kinase at 10 uM concentration of compound dissolved in 100% DMSO using 5''-[gamma-33P]-triphosphate

RAF proto-oncogene serine/threonine-protein kinase (Homo sapiens), sequence (P04049 whole entry): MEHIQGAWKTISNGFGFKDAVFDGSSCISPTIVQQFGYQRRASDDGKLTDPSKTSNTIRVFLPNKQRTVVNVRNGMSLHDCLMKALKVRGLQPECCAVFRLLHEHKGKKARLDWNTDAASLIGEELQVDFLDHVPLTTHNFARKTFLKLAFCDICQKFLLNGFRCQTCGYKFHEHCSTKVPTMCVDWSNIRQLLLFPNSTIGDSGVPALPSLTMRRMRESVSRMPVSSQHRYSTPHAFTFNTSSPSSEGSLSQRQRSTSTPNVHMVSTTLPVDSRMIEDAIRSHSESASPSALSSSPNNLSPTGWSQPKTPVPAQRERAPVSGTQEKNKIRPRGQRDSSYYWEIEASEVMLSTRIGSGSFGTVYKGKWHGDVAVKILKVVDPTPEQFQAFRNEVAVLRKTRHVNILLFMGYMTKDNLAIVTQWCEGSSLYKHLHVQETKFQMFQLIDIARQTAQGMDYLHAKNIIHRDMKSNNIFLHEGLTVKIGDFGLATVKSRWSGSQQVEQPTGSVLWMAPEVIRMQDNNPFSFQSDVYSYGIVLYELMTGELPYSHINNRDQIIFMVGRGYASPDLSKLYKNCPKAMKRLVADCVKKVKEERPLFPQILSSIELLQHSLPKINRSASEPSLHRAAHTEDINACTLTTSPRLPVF
Mast/stem cell growth factor receptor Kit (Homo sapiens), sequence (P10721 whole entry): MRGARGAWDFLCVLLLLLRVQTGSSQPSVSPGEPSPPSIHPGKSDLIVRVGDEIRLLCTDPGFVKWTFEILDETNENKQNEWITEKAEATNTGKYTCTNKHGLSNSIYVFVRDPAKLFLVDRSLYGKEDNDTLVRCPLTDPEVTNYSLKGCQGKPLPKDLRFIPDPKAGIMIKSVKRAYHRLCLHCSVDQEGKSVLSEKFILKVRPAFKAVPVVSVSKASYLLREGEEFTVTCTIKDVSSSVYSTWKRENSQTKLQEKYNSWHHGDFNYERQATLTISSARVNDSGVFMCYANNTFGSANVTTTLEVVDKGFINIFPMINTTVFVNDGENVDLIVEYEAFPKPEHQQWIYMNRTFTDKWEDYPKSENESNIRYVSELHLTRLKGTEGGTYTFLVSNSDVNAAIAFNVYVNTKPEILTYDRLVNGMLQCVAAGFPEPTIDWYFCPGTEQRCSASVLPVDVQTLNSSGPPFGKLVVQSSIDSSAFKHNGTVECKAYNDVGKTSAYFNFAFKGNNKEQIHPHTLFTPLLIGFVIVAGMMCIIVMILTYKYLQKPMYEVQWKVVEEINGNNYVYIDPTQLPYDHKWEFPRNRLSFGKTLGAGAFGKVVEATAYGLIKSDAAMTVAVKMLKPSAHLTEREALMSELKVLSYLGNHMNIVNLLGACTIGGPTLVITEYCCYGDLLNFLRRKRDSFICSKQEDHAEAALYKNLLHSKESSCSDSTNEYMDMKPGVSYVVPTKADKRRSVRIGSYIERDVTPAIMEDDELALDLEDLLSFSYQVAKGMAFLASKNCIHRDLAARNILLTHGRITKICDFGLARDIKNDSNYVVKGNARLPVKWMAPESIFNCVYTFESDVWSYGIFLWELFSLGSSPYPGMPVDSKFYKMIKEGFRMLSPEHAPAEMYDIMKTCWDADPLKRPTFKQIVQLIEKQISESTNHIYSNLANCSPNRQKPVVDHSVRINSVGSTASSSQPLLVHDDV
Hepatocyte growth factor receptor (Homo sapiens), sequence (P08581 whole entry): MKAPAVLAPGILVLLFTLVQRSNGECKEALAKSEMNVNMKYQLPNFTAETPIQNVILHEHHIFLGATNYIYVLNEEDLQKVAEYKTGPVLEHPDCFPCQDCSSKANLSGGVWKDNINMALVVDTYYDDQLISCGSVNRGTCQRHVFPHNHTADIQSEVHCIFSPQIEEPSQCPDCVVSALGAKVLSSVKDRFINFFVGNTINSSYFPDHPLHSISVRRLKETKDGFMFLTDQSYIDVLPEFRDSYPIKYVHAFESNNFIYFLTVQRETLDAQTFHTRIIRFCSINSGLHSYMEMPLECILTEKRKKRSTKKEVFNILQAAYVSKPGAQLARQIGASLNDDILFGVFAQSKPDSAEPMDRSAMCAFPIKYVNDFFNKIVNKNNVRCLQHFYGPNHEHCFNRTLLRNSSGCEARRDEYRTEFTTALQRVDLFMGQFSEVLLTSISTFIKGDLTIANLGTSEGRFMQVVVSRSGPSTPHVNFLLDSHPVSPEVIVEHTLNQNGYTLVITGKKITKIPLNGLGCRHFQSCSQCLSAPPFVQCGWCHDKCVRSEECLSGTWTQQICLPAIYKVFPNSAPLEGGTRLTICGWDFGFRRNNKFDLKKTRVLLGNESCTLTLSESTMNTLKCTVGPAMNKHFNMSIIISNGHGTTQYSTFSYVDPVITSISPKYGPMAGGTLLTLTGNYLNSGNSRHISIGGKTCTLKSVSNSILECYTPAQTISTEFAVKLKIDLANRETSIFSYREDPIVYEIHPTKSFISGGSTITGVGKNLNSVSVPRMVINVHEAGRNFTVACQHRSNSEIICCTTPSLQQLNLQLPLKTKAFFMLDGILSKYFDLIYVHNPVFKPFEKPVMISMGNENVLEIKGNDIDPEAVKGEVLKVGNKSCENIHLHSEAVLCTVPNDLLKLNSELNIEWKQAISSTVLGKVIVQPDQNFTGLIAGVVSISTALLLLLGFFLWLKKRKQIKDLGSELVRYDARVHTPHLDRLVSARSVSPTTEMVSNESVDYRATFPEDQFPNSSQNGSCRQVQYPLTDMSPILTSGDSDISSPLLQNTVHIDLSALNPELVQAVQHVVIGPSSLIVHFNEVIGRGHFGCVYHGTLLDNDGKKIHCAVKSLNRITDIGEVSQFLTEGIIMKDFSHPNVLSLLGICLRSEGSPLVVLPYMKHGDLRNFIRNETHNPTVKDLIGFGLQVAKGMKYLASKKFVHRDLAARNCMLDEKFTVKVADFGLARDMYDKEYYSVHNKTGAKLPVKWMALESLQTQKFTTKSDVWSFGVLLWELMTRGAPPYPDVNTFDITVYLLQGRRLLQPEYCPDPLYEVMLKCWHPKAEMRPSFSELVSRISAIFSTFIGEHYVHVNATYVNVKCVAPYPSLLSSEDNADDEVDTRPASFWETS
Rho-associated protein kinase 2 (Homo sapiens), sequence (O75116 whole entry, looked up, canonical isoform): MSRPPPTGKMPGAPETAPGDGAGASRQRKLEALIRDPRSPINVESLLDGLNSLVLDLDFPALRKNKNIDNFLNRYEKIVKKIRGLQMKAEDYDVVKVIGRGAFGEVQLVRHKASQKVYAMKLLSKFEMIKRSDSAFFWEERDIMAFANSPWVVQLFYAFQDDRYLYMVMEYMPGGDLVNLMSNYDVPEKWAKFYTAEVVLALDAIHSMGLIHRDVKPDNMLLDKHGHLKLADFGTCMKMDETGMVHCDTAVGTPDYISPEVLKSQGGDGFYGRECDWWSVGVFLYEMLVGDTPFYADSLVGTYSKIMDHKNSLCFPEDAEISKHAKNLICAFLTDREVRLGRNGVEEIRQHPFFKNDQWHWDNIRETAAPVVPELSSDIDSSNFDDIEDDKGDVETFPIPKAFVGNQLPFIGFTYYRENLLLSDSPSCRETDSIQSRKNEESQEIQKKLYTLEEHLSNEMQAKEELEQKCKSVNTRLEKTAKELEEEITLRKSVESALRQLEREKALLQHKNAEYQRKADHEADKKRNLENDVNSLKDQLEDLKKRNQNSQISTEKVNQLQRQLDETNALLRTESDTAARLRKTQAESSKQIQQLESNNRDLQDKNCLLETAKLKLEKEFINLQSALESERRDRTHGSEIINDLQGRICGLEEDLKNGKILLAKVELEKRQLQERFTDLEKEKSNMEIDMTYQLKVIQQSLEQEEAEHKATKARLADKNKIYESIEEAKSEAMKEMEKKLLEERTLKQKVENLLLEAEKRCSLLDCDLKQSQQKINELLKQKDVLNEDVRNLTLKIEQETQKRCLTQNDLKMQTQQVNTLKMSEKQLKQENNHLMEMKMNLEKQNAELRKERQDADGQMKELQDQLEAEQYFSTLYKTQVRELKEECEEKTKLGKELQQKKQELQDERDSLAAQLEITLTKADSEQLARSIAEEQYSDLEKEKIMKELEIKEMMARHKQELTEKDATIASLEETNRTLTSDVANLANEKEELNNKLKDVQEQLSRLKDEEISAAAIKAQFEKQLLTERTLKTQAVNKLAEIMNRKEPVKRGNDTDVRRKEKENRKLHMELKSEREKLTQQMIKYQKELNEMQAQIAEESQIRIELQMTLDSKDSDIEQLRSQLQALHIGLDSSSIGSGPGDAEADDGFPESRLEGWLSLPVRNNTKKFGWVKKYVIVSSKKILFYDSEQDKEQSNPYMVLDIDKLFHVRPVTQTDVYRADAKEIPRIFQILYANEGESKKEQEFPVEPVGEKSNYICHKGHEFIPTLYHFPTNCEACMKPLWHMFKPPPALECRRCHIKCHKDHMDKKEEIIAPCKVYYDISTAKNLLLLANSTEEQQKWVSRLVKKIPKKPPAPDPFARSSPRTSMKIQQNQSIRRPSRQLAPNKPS
Casein kinase I isoform alpha (Homo sapiens), sequence (P48729 2-337 limits assumed): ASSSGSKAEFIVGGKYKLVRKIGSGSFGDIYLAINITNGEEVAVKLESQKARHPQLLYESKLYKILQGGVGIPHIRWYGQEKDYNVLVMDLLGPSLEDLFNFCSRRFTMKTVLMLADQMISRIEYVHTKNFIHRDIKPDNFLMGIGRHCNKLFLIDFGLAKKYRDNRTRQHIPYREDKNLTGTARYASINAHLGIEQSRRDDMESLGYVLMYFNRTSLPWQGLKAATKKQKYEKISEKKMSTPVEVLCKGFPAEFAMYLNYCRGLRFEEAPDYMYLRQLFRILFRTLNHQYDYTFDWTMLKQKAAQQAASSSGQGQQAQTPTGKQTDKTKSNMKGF

Row | inhibition [1] | inhibition [2] | inhibition [3] | inhibition [5] | inhibition [6] | inhibition [7] | inhibition [8] | inhibition [9] | inhibition [11] | inhibition [12] | inhibition [13] | inhibition [14] | inhibition [15] | inhibition [16] | logP [17] | inhibition [18] | IC50 (SRPK1 (Homo sapiens)) | Structure (SMILES) | further results
1 | 9% | 25% | -7% | 42% | 47% | 5% | 12% | 8% | 2% | 5% | 30% | 16% | 38% | 15% | 5.5 | 8% | Not Active | COC(=O)CCCc1ccc(-c2nc3cc4ccccc4cc3nc2-c2ccc(CCCC(=O)OC)s2)s1 | inhibition [4]: 24%; inhibition [10]: -6%
2 | – | – | – | – | – | – | – | – | – | – | – | – | – | – | – | – | – | c1ccc(-c2cnc3cc4ccccc4cc3n2)cc1 | IC50 [19]: 900 nM
3 | 15% | -7% | 2% | -5% | 24% | 22% | 27% | 21% | 39% | 32% | -5% | 22% | 17% | 10% | 5 | 26% | Not Active | c1csc(-c2nc3cc4c(cc3nc2-c2cccs2)OCCCO4)c1 | inhibition [20]: 34%; inhibition [21]: 75%
